Data reported in PubChem BioAssay AID2060908 (Molecular Pharmacology Branch, DTP, NCI, 2025).

System: 186277-243-T-J2-PDC complex spheroids, viability
Experiment: Anticancer human tumor 186277-243-T-J2-PDC patient-derived colon adenocarcinoma cell line growth inhibition [RAS]
Conditions: for IC50: curve of first compound; for viability, T/C: stronger effect = lower value
How it was run: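 Agents were tested in combination matrices in half-log decrements from a top concentration at or near clinical Cmax (10 microM if undetermined). Targets were multi-cell spheroids of tumour lines plus HUVEC and MSC stromal cells.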
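Also: spheroids exposed to compounds for 7 days before viability read.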

Compound: CC(=O)OC12COC1CC(O)C1(C)C(=O)C(O)C3=C(C)C(OC(=O)C(O)C(NC(=O)OC(C)(C)C)c4ccccc4)CC(O)(C(OC(=O)c4ccccc4)C21)C3(C)C (configuration not stated) + C#Cc1c(F)ccc2cc(O)cc(-c3ncc4c(N5CC6CCC(C5)N6)nc(OCC56CCCN5CC(F)C6)nc4c3F)c12
- IC50 (second compound 0.0316 µM): < 0.0316 µM
- IC50 (second compound 0.1 µM): < 0.0316 µM
- IC50 (second compound 0.316 µM): < 0.0316 µM
- IC50 (second compound 1 µM): < 0.0316 µM
- IC50 (second compound 3.16 µM): < 0.0316 µM
- IC50 (second compound 10 µM): < 0.0316 µM
- viability, T/C (second compound 0.0316 µM, first compound 0.0316 µM): 5.3%
- viability, T/C (second compound 0.0316 µM, first compound 0.1 µM): 5.14%
- viability, T/C (second compound 0.0316 µM, first compound 0.316 µM): 5.59%
- viability, T/C (second compound 0.0316 µM, first compound 1 µM): 4.15%
- viability, T/C (second compound 0.0316 µM, first compound 3.16 µM): 5.04%
- viability, T/C (second compound 0.0316 µM, first compound 10 µM): 4.9%
- viability, T/C (second compound 0.1 µM, first compound 0.0316 µM): 6.01%
- viability, T/C (second compound 0.1 µM, first compound 0.1 µM): 5.73%
- viability, T/C (second compound 0.1 µM, first compound 0.316 µM): 4.94%
- viability, T/C (second compound 0.1 µM, first compound 1 µM): 4.03%
- viability, T/C (second compound 0.1 µM, first compound 3.16 µM): 5.26%
- viability, T/C (second compound 0.1 µM, first compound 10 µM): 3.53%
- viability, T/C (second compound 0.316 µM, first compound 0.0316 µM): 5.77%
- viability, T/C (second compound 0.316 µM, first compound 0.1 µM): 4.92%
- viability, T/C (second compound 0.316 µM, first compound 0.316 µM): 4.48%
- viability, T/C (second compound 0.316 µM, first compound 1 µM): 4.42%
- viability, T/C (second compound 0.316 µM, first compound 3.16 µM): 4.75%
- viability, T/C (second compound 0.316 µM, first compound 10 µM): 5%
- viability, T/C (second compound 1 µM, first compound 0.0316 µM): 4.79%
- viability, T/C (second compound 1 µM, first compound 0.1 µM): 5.04%
- viability, T/C (second compound 1 µM, first compound 0.316 µM): 4.17%
- viability, T/C (second compound 1 µM, first compound 1 µM): 4.69%
- viability, T/C (second compound 1 µM, first compound 3.16 µM): 5.21%
- viability, T/C (second compound 1 µM, first compound 10 µM): 4.15%
- viability, T/C (second compound 3.16 µM, first compound 0.0316 µM): 3.84%
- viability, T/C (second compound 3.16 µM, first compound 0.1 µM): 4.36%
- viability, T/C (second compound 3.16 µM, first compound 0.316 µM): 4.81%
- viability, T/C (second compound 3.16 µM, first compound 1 µM): 3.94%
- viability, T/C (second compound 3.16 µM, first compound 3.16 µM): 4.59%
- viability, T/C (second compound 3.16 µM, first compound 10 µM): 3.53%
- viability, T/C (second compound 10 µM, first compound 0.0316 µM): 4.68%
- viability, T/C (second compound 10 µM, first compound 0.1 µM): 3.75%
- viability, T/C (second compound 10 µM, first compound 0.316 µM): 4.17%
- viability, T/C (second compound 10 µM, first compound 1 µM): 4.45%
- viability, T/C (second compound 10 µM, first compound 3.16 µM): 4.43%
- viability, T/C (second compound 10 µM, first compound 10 µM): 3.61%
